In ChEMBL document CHEMBL4725249, “Quinazoline Based HSP90 Inhibitors: Synthesis, Modeling Study and ADME Calculations Towards Breast Cancer Targeting” (Bioorg Med Chem Lett, 2020) one finds IC50 and Activity data, which are given here for 18 compounds.

The subject of assay [1] is HCT-116. The assay can be described thus: cells. As to conditions: Homo sapiens, HCT-116, 48 h.
Description: Antiproliferative activity against human HCT116 cells assessed as reduction in cell viability after 48 hrs by MTT assay
In assay [2] the test system is HeLa. The assay can be described thus: Antiproliferative activity against human HeLa cells assessed as reduction in cell viability after 48 hrs by MTT assay. Format: functional, cell-based. On the technique in general: Formazan colour is commonly taken as a measure of viable cells.
In assay [3] the test system is MCF7. The experiment in a line: Antiproliferative activity against human MCF7 cells assessed as reduction in cell viability after 48 hrs by MTT assay. Format: functional, cell-based. The conditions noted are these: MCF7, 48 h.
The test system of assay [4] is WI-38. The experiment in a line: cells. As to conditions: Homo sapiens, WI-38, 48 h.
Description: Cytotoxicity against human WI-38 cells assessed as reduction in cell viability after 48 hrs by MTT assay
For assay [5], the target named is Heat shock protein HSP90 (Homo sapiens, UniProt P07900+P08238). The experiment in a line: Inhibition of HSP90 ATPase activity (unknown origin). Type of assay: protein assay.
Assay [6] concerns MCF7. The assay can be described thus: Induction of apoptosis in human MCF7 cells assessed as necrotic cells at 2 uM after 24 hrs by Annexin V-FITC/propidium iodide staining based flow cytometric analysis (reference value: 0.43%). Format: functional. For orientation: Flow cytometry measures light scatter and fluorescence of single cells or particles in a stream.
For assay [7], the system named is MCF7. The experiment in a line: Induction of apoptosis in human MCF7 cells assessed as early apoptotic cells at 2 uM after 24 hrs by Annexin V-FITC/propidium iodide staining based flow cytometric analysis (reference value: 0.82%). Format: functional.
Assay [8] deals with MCF7. The assay can be described thus: Induction of cell cycle arrest in human MCF7 cells assessed as cell accumulation at G0/G1 phase at 2 uM after 24 hrs by PI-staining based flow cytometry (reference value: 53.72%). Type of assay: functional.
For assay [9], the system named is MCF7. The experiment in a line: Induction of cell cycle arrest in human MCF7 cells assessed as cell accumulation at Pre-G1 phase at 2 uM after 24 hrs by PI-staining based flow cytometry (reference value: 1.64%). Type of assay: functional.
The subject of assay [10] is MCF7. The experiment in a line: Induction of cell cycle arrest in human MCF7 cells assessed as cell accumulation at G2/M phase at 2 uM after 24 hrs by PI-staining based flow cytometry (reference value: 10.84%). Type of assay: functional.
Assay [11] deals with MCF7. The experiment in a line: Induction of apoptosis in human MCF7 cells assessed as late apoptotic cells at 2 uM after 24 hrs by Annexin V-FITC/propidium iodide staining based flow cytometric analysis (reference value: 0.39%). Type of assay: functional.
For assay [12], the system named is MCF7. The experiment in a line: Induction of cell cycle arrest in human MCF7 cells assessed as debris content at 2 uM after 24 hrs by PI-staining based flow cytometry (reference value: 2.09%). Format: functional.
The test system of assay [13] is MCF7. The assay can be described thus: Induction of cell cycle arrest in human MCF7 cells assessed as cell aggregates at 2 uM after 24 hrs by PI-staining based flow cytometry (reference value: 2.28%). Type of assay: functional.
Assay [14] relates to MCF7. The experiment in a line: Induction of cell cycle arrest in human MCF7 cells assessed as cell accumulation at S phase at 2 uM after 24 hrs by PI-staining based flow cytometry (reference value: 35.44%). Type of assay: functional.

Structures are written as SMILES. Some results are limits rather than exact numbers.

For orientation: IC50 means the concentration that gives 50% inhibition. For the compound `O=c1c2ccccc2nc(SCCCCl)n1-c1ccccc1`, the IC50 in assay [1] amounted to 23.2 µM; in assay [2] it was 16.7 µM; in assay [3], 12.6 µM; in assay [4] it was 36.7 µM.

For the compound `CCOc1ccccc1N1CCN(C(=S)SCCCSc2nc3ccccc3c(=O)n2-c2ccccc2)CC1`, the IC50 in assay [1] was 18.1 µM; in [2], 20.6 µM; in assay [3], 9.48 µM; in assay [4] it was 33.3 µM; in assay [5], 3.41 µM.

Regarding `O=c1c2ccccc2nc(SCCCSC(=S)N2CCN(C3CCCCC3)CC2)n1-c1ccccc1`, the IC50 in [1] was 73.8 µM; in assay [2], 64.5 µM; in [3], 45.9 µM; in assay [4], above 100 µM.

With `O=c1c2ccccc2nc(SCCCSC(=S)N2CCCCC2)n1-c1ccccc1`, the IC50 was 63.4 µM in [1], 50.3 µM in assay [2], 38.5 µM in assay [3] and above 100 µM in [4].

`CC(C)(C)OC(=O)N1CCN(C(=O)CSc2nc3ccccc3c(=O)n2-c2ccccc2)CC1`: the IC50 was 48.3 µM in [1], 34.5 µM in [2], 25.9 µM in [3] and 62.6 µM in assay [4].

For the compound `O=C(CSc1nc2ccccc2c(=O)n1-c1ccccc1)N1CCN(C2CCCCC2)CC1`, the IC50 in assay [1] came to 60.9 µM; in [2], 53.6 µM; in assay [3], 35.9 µM; in assay [4], 78.4 µM.

`O=C(CSc1nc2ccccc2c(=O)n1-c1ccccc1)N1CCOCC1`: the IC50 in assay [1] amounted to 19.8 µM; in [2], 18.2 µM; in assay [3], 11.7 µM; in assay [4], 16 µM; in [5] it was 3.21 µM.

Regarding `O=C(CSc1nc2ccccc2c(=O)n1-c1ccccc1)N1CCN(c2ncccn2)CC1`, the IC50 in [1] stood at 78.7 µM; in assay [2], 76.9 µM; in assay [3] it was 47.5 µM; in assay [4] it was 94.5 µM.

Turning to `O=C(CSc1nc2ccccc2c(=O)n1-c1ccccc1)N1CCCCC1`, the IC50 in assay [1] stood at 25.3 µM; in assay [2] it was 22.5 µM; in assay [3], 13.8 µM; in [4] it was 65 µM.

With `CC(=O)N1CCN(C(=S)SCCCSc2nc3ccccc3c(=O)n2-c2ccccc2)CC1`, the IC50 is 37 µM in [1], 54.9 µM in assay [2], 22.4 µM in assay [3] and above 100 µM in [4].

`C=CCN1CCN(C(=O)CSc2nc3ccccc3c(=O)n2-c2ccccc2)CC1`: the Activity in [6] is reported as 2.31%; in assay [7] it was 4.94%; in assay [8] it was 31.59%; in assay [9], 22.42%; in assay [10], 38.89%; in [11] it was 15.17%. The Activity in assay [12] turned out to be 2.63%; in assay [13], 2.21%; in assay [14], 29.52%. Besides, the IC50 in assay [1] was 15.7 µM; in [2], 13.4 µM; in assay [3] it was 8.56 µM; in [4], 12.2 µM; in assay [5] it was 1.58 µM.

Consider `CC(=O)N1CCN(C(=O)CSc2nc3ccccc3c(=O)n2-c2ccccc2)CC1`, for which the IC50 in [1] amounted to 10.3 µM; in assay [2], 12 µM; in assay [3] it was 7.35 µM; in assay [4], 16 µM; in [5], 14.36 µM.

As for `C=CCN1CCN(C(=S)SCCCSc2nc3ccccc3c(=O)n2-c2ccccc2)CC1`, the IC50 in assay [1] was 32.1 µM; in [2], 28.7 µM; in assay [3], 17.8 µM; in assay [4], 82.5 µM.

`O=c1c2ccccc2nc(SCCCSC(=S)N2CCN(c3ncccn3)CC2)n1-c1ccccc1`: the IC50 in assay [1] was 79.6 µM; in [2], 74.4 µM; in assay [3] it was 49.3 µM; in assay [4], above 100 µM.

As to `CCN1CCN(C(=S)SCCCSc2nc3ccccc3c(=O)n2-c2ccccc2)CC1`, the IC50 was 88 µM in [1], 79.6 µM in assay [2], 64.3 µM in assay [3] and above 100 µM in assay [4].

`CN1CCN(C(=S)SCCCSc2nc3ccccc3c(=O)n2-c2ccccc2)CC1`: the IC50 in [1] worked out at 32.8 µM; in assay [2] it was 33.3 µM; in assay [3] it was 19.3 µM; in [4], 70.5 µM.

For `O=c1c2ccccc2nc(SCCCSC(=S)N2CCN(c3ccccc3)CC2)n1-c1ccccc1`, the IC50 came out at 27.6 µM in [1], 26.1 µM in [2], 15.5 µM in assay [3] and 29.8 µM in assay [4].

Take `CCN1CCN(C(=O)CSc2nc3ccccc3c(=O)n2-c2ccccc2)CC1`: the IC50 in assay [1] is 44.3 µM; in [2] it was 37.5 µM; in assay [3], 23.9 µM; in assay [4], 82 µM.
